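Test compounds were applied to cells in 96-well plates for 48 hours at 5 doses. Here, GI50 denotes the concentration required for 50% inhibition of growth.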 Calls of active or inactive are those of the source. Cut-off read from the data, not from the text of the source: active = GI50 up to about 1.1 µM and inactive = higher.
Experiments:
Experiment in all cases: inhibition of tumour cell growth, NCI panel, 48 h
[1] = tested on: SK-OV-3
[2] = tested on: UO-31
[3] = tested on: NCI-H23
[4] = tested on: A498
[5] = tested on: NCI/ADR-RES
[6] = tested on: SN12C
[7] = tested on: SR
[8] = tested on: MDA-N
[9] = tested on: K562
[10] = tested on: MCF7
[11] = tested on: HCT-116
[12] = tested on: ACHN
[13] = tested on: UACC-62
[14] = tested on: KM12
[15] = tested on: M14
[16] = tested on: SF-295
[17] = tested on: MDA-MB-435
[18] = tested on: LOX IMVI
[19] = tested on: SK-MEL-28
[20] = tested on: SNB-75
[21] = tested on: HL-60
[22] = tested on: RPMI-8226
[23] = tested on: SK-MEL-5
[24] = tested on: NCI-H226
[25] = tested on: SW-620
[26] = tested on: SNB-19
[27] = tested on: SF-539
[28] = tested on: HCC 2998
[29] = tested on: PC-3
[30] = tested on: MOLT-4
[31] = tested on: 786-0
[32] = tested on: HOP-92
[33] = tested on: IGROV-1
[34] = tested on: A549
[35] = tested on: HCT-15
[36] = tested on: OVCAR-4
[37] = tested on: OVCAR-5
[38] = tested on: TK-10
[39] = tested on: RXF 393
[40] = tested on: BT-549
[41] = tested on: CCRF-CEM
[42] = tested on: NCI-H522
[43] = tested on: HOP-62
[44] = tested on: OVCAR-8
[45] = tested on: SK-MEL-2
[46] = tested on: EKVX
[47] = tested on: COLO 205
[48] = tested on: CAKI-1
[49] = tested on: Malme-3M
[50] = tested on: DU-145
[51] = tested on: OVCAR-3
[52] = tested on: T47D
[53] = tested on: MDA-MB-231
[54] = tested on: HT-29
[55] = tested on: U-251
[56] = tested on: UACC-257
[57] = tested on: SF-268
[58] = tested on: Hs-578T
[59] = tested on: NCI-H460

In the case of `CC1(C)CCC[C@@]2(C)C1CC[C@@]1(CO)O[C@H](C3=CC(=O)OC3O)C[C@H]12` (some centres not stated), the GI50 [1] is reported as 29.4 µM (inactive), the GI50 [2] is reported as 15.2 µM (inactive) and the GI50 [3] is reported as 13.6 µM (inactive). The GI50 [4] was 15 µM (inactive), the GI50 [5] was 15 µM (inactive) and the GI50 [6] was 13.3 µM (inactive). For the same compound, the GI50 [7] was 2.71 µM (inactive), the GI50 [8] was 12.6 µM (inactive) and the GI50 [9] was 4.76 µM (inactive). The GI50 [10] was 6.82 µM (inactive), the GI50 [11] was 6.1 µM (inactive) and the GI50 [12] was 14 µM (inactive). The GI50 [13] was 3.89 µM (inactive), the GI50 [14] was 20.8 µM (inactive) and the GI50 [15] was 11.8 µM (inactive). The GI50 [16] was 21.5 µM (inactive), the GI50 [17] was 11.5 µM (inactive) and the GI50 [18] was 1.56 µM (inactive). For the same compound, the GI50 [19] was 11.4 µM (inactive), the GI50 [20] was 15.3 µM (inactive) and the GI50 [21] was 1.66 µM (inactive). The GI50 [22] was 3.87 µM (inactive), the GI50 [23] was 5.38 µM (inactive) and the GI50 [24] was 18.2 µM (inactive). The GI50 [25] was 7.74 µM (inactive), the GI50 [26] was 16.2 µM (inactive) and the GI50 [27] was 19.3 µM (inactive). The GI50 [28] was 17.4 µM (inactive), the GI50 [29] was 13.8 µM (inactive) and the GI50 [30] was 3.03 µM (inactive). For the same compound, the GI50 [31] was 15 µM (inactive), the GI50 [32] was 19.1 µM (inactive) and the GI50 [33] was 18.1 µM (inactive). The GI50 [34] was 30.5 µM (inactive), the GI50 [35] was 7.57 µM and the GI50 [36] was 14.5 µM (inactive). The GI50 [37] was 22.8 µM (inactive), the GI50 [38] was 19.7 µM (inactive) and the GI50 [39] was 11 µM (inactive). For the same compound, the GI50 [40] was 8.26 µM (inactive), the GI50 [41] was 2.74 µM (inactive) and the GI50 [42] was 3.69 µM (inactive). The GI50 [43] was 14.9 µM (inactive), the GI50 [44] was 15.6 µM (inactive) and the GI50 [45] was 14.4 µM (inactive). The GI50 [46] was 22.9 µM (inactive), the GI50 [47] was 11.1 µM (inactive) and the GI50 [48] was 15 µM (inactive). The GI50 [49] was 11 µM (inactive), the GI50 [50] was 13.3 µM (inactive) and the GI50 [51] was 14.9 µM (inactive). For the same compound, the GI50 [52] was 12.2 µM (inactive), the GI50 [53] was 18.8 µM (inactive) and the GI50 [54] was 13 µM (inactive). The GI50 [55] was 15.1 µM (inactive), the GI50 [56] was 14.9 µM (inactive) and the GI50 [57] was 19.7 µM (inactive). The GI50 [58] was 14.7 µM (inactive) and the GI50 [59] was 17.7 µM (inactive).
`CC[P+](c1ccccc1)(N(C)C)N(C)C` was tested, and the GI50 [1] was > 100 µM (inactive), the GI50 [2] was > 100 µM (inactive) and the GI50 [3] was > 100 µM (inactive). The GI50 [4] was > 100 µM (inactive), the GI50 [5] was > 100 µM (inactive) and the GI50 [6] was > 100 µM (inactive). The GI50 [7] was > 100 µM (inactive), the GI50 [8] was > 100 µM (inactive) and the GI50 [9] was > 100 µM (inactive). For the same compound, the GI50 [10] was > 100 µM (inactive), the GI50 [11] was > 100 µM (inactive) and the GI50 [12] was > 100 µM (inactive). The GI50 [13] was > 100 µM (inactive), the GI50 [14] was > 100 µM (inactive) and the GI50 [15] was > 100 µM (inactive). For the same compound, the GI50 [16] was > 100 µM (inactive), the GI50 [17] was > 100 µM (inactive) and the GI50 [18] was > 100 µM (inactive). For the same compound, the GI50 [19] was > 100 µM (inactive), the GI50 [20] was > 100 µM (inactive) and the GI50 [21] was > 100 µM (inactive). For the same compound, the GI50 [22] was 71.9 µM (inactive), the GI50 [23] was 54.5 µM (inactive) and the GI50 [24] was 59.8 µM (inactive). The GI50 [25] was > 100 µM (inactive), the GI50 [26] was > 100 µM (inactive) and the GI50 [27] was > 100 µM (inactive). For the same compound, the GI50 [28] was > 100 µM (inactive), the GI50 [29] was 60.5 µM (inactive) and the GI50 [30] was > 100 µM (inactive). The GI50 [31] was > 100 µM (inactive), the GI50 [32] was 38.9 µM (inactive) and the GI50 [33] was > 100 µM (inactive). The GI50 [34] was > 100 µM (inactive), the GI50 [35] was greater than 100 µM and the GI50 [36] was > 100 µM (inactive). For the same compound, the GI50 [37] was > 100 µM (inactive), the GI50 [38] was > 100 µM (inactive) and the GI50 [39] was > 100 µM (inactive). For the same compound, the GI50 [40] was > 100 µM (inactive), the GI50 [41] was > 100 µM (inactive) and the GI50 [42] was 89.5 µM (inactive). For the same compound, the GI50 [43] was > 100 µM (inactive), the GI50 [44] was > 100 µM (inactive) and the GI50 [45] was > 100 µM (inactive). For the same compound, the GI50 [46] was > 100 µM (inactive), the GI50 [47] was > 100 µM (inactive) and the GI50 [48] was > 100 µM (inactive). For the same compound, the GI50 [49] was > 100 µM (inactive), the GI50 [50] was > 100 µM (inactive) and the GI50 [51] was > 100 µM (inactive). For the same compound, the GI50 [52] was > 100 µM (inactive), the GI50 [53] was > 100 µM (inactive) and the GI50 [54] was > 100 µM (inactive). The GI50 [55] was 53.8 µM (inactive), the GI50 [56] was > 100 µM (inactive) and the GI50 [57] was 95.1 µM (inactive). The GI50 [58] was > 100 µM (inactive) and the GI50 [59] was > 100 µM (inactive).
`O=C(NNC(=S)Nc1ccccc1)C12CC3CC(CC(C3)C1)C2` was tested, and the GI50 [1] was 41.4 µM (inactive), the GI50 [2] was 4.58 µM (inactive) and the GI50 [3] was 31.8 µM (inactive). For the same compound, the GI50 [4] was 21.1 µM (inactive), the GI50 [5] was 15.5 µM (inactive) and the GI50 [6] was 24.5 µM (inactive). For the same compound, the GI50 [7] was 0.252 µM (active), the GI50 [8] was 26.8 µM (inactive) and the GI50 [9] was 12.7 µM (inactive). The GI50 [10] was 19.2 µM (inactive), the GI50 [11] was 13.6 µM (inactive) and the GI50 [12] was 20.3 µM (inactive). For the same compound, the GI50 [13] was 13.7 µM (inactive), the GI50 [14] was 43.2 µM (inactive) and the GI50 [15] was 13.8 µM (inactive). For the same compound, the GI50 [16] was 11.4 µM (inactive), the GI50 [17] was 23.7 µM (inactive) and the GI50 [18] was 11.2 µM (inactive). For the same compound, the GI50 [19] was 21.9 µM (inactive), the GI50 [20] was 29.4 µM (inactive) and the GI50 [21] was 7.01 µM (inactive). For the same compound, the GI50 [22] was 17.3 µM (inactive), the GI50 [23] was 8.53 µM (inactive) and the GI50 [24] was 26.7 µM (inactive). The GI50 [25] was 24.2 µM (inactive), the GI50 [26] was 25.4 µM (inactive) and the GI50 [27] was 25.8 µM (inactive). For the same compound, the GI50 [28] was 30.9 µM (inactive), the GI50 [29] was 18.2 µM (inactive) and the GI50 [30] was 10 µM (inactive). The GI50 [31] was 19.3 µM (inactive), the GI50 [32] was 30.1 µM (inactive) and the GI50 [33] was 25.1 µM (inactive). The GI50 [34] was 19.9 µM (inactive), the GI50 [35] was 7.28 µM and the GI50 [36] was 29.2 µM (inactive). For the same compound, the GI50 [37] was 59.4 µM (inactive), the GI50 [38] was 39.5 µM (inactive) and the GI50 [39] was 27.7 µM (inactive). For the same compound, the GI50 [40] was 9.1 µM (inactive), the GI50 [41] was 6.92 µM (inactive) and the GI50 [42] was 28.1 µM (inactive). For the same compound, the GI50 [43] was 35.2 µM (inactive), the GI50 [44] was 21.7 µM (inactive) and the GI50 [45] was 22.1 µM (inactive). The GI50 [46] was 36 µM (inactive), the GI50 [47] was 20.7 µM (inactive) and the GI50 [48] was 21.9 µM (inactive). The GI50 [49] was 20 µM (inactive), the GI50 [50] was 28.6 µM (inactive) and the GI50 [51] was 10.6 µM (inactive). For the same compound, the GI50 [52] was 27.6 µM (inactive), the GI50 [53] was 40 µM (inactive) and the GI50 [54] was 21.3 µM (inactive). For the same compound, the GI50 [55] was 12.9 µM (inactive), the GI50 [56] was 31.7 µM (inactive) and the GI50 [57] was 17.1 µM (inactive). The GI50 [58] was > 74.3 µM (inactive) and the GI50 [59] was 7.23 µM (inactive).

From ChEMBL document CHEMBL1201862, “PubChem BioAssay data set” (2004)
